Measurements as given in patent US8409859B2, “Differentiation of non-embryonic stem cells to cells having a pancreatic phenotype” (Regents of the University of Minnesota, priority 2005, dated 2013).

Experiments:
rat MAPCs = test: Cytokine mediated differentiation of rat MAPCs, Q-RT-PCR and cell survival; assay type: cell-based; settings: activin-A, BMP4 and cyclopamine or anti-SHH Ab withdrawn after d6, cells then maintained with the factor
Protocol: For Q-RT-PCR reactions described herein, the primer sequences are presented in Tables 3-5 and the following protocols were used: RNA was extracted from the cells with the aid of the RNeasy Mini Kit (Qiagen; Valencia Calif.), followed by a DNase Treatment with DNA-Free™ (Ambion, Austin, Tex.). The RNA was reverse transcribed with TaqMan (Applied Biosystems, Foster City, Calif.; Step 1 (Incubation): 25° C., 10 min; Step 2 (RT): 48° C., 30 min; Step 3 (RT Inactivation): 95° C., 10 min).
Following reverse transcription, Quantitative Real Time PCR (Q-RT-PCR) was performed as follows: Step 1: 50° C., 2 min (Incubation); Step 2: 95° C., 10 min (Taq activation); Step 3: 95° C., 15 sec (Denaturation) followed by 60° C., 1 min (Extension) and repeat for 40 cycles; Step 4: 95° C., 15 sec (Dissociation); Step 5: 60° C., 20 sec (Melting curve); Step 6: 95° C., 15 sec.
In an initial series of studies, the effect of cell density (about 10^4-10^5 cells/cm^2), ECM component (fibronectin, collagen, matrigel) and different concentrations (10-100 ng/mL) of bFGF (10-100 ng/mL), FGF2 (10-100 ng/mL), Activin A (e.g., about 10 ng/mL to about 100 ng/mL), BMP4 (e.g., about 10 ng/mL to about 50 ng/mL), retinoic acid (about 10^−6M), EGF (e.g., about 10 to about 100 ng/mL), FGF10 (e.g., about 50 to about 150 ng/mL, including about 100 ng/mL), HGF (e.g., about 10 to about 100 ng/mL), GDF11 (e.g., about 50 to abut 150 ng/mL), cyclopamine (e.g., about 10 μM), anti-SHH antibody (Ab; e.g., about 10 μg/mL), nicotinamide (e.g., 5 μM to about 50 μM, including about 10 μM), exendin 4 (about 5 nM to about 50 nM, including about 10 nM), betacellulin (e.g., about 50 to abut 150 ng/mL) alone or in combinations of 2 or 3 and in different temporal sequences, on the induction of transcription factors, insulin, glucagon and somatostatin expression levels after 6, 12 and 18 days using Q-RT-PCR was determined.
Subsequent addition of factors believed to play a role in further proliferation and differentiation from pancreas-committed cells to mature endocrine pancreas, including EGF (e.g., about 50 ng/mL), HGF (e.g., about 50 ng/mL) and FGF10 (e.g., about 100 ng/mL), either alone or in combination was tested. […] Further optimization was obtained by adjusting the duration of the different steps along the differentiation course, as well addition of β-cellulin (50 ng/mL).

human MAPCs = settings: about 10 ng/mL LIF; cited from earlier work
murine MAPCs = settings: about 10 ng/mL LIF added to PDGF-BB and EGF culture; cited from earlier work

Row | Substance | cell survival (rat MAPCs) | short-term cell growth (cell doubling time till 25 cell doublings, Oct 4 expression) (human MAPCs) | cell growth (murine MAPCs)
1 | EGF: epidermal growth factor | significantly better |  | 
2 | LIF: leukemia inhibitory factor, culture supplement |  | did not affect short-term cell growth | significantly enhanced cell growth
3 | HGF: mitogenic protein used at about 50 ng/mL | significantly better |  | 
